Measured values from PubChem BioAssay AID248 (DTP/NCI, 2004).
Several values for one entry are separate records, joined by “and”; a condition that tells them apart may be missing. Equal entries are not always repeated. Inconclusive results and toxic doses are left out. No stated cut-off is given here; in the data, active means T/C of 150% or more; inactive means T/C below 125%.

System: L1210 leukemia ip in BDF1 mice, survival T/C
Test: NCI In Vivo Anticancer Drug Screen. Data for tumor model L1210 Leukemia (intraperitoneal) in B6D2F1 (BDF1) mice
Settings: endpoint: mean survival time, higher = longer survival
How it was run: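 Antitumor effect is assessed in tumor-bearing animals. Survival in the compound arm is compared with a vehicle-dosed control arm and expressed as their quotient.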

[1] = dose: 25.0 mg/kg/injection, schedule: Q04DX003 (ip), vehicle: Klucel (hydroxypropylcellulose) (HPC)
[2] = dose: 100.0 mg/kg/injection, schedule: Q01DX001 (ip), vehicle: Klucel (hydroxypropylcellulose) (HPC)
[3] = dose: 100.0 mg/kg/injection, schedule: Q04DX003 (ip), vehicle: Klucel (hydroxypropylcellulose) (HPC)
[4] = dose: 200.0 mg/kg/injection, schedule: Q01DX001 (ip), vehicle: Klucel (hydroxypropylcellulose) (HPC)
[5] = dose: 400.0 mg/kg/injection, schedule: Q01DX001 (ip), vehicle: Klucel (hydroxypropylcellulose) (HPC)
[6] = dose: 25.0 mg/kg/injection, schedule: Q01DX009 (ip), vehicle: Klucel (hydroxypropylcellulose) (HPC)
[7] = dose: 50.0 mg/kg/injection, schedule: Q01DX001 (ip), vehicle: saline
[8] = dose: 100.0 mg/kg/injection, schedule: Q01DX001 (ip), vehicle: saline
[9] = dose: 200.0 mg/kg/injection, schedule: Q01DX001 (ip), vehicle: saline
[10] = dose: 400.0 mg/kg/injection, schedule: Q01DX001 (ip), vehicle: saline
[11] = dose: 50.0 mg/kg/injection, schedule: Q01DX009 (ip), vehicle: Klucel (hydroxypropylcellulose) (HPC)
[12] = dose: 100.0 mg/kg/injection, schedule: Q01DX009 (ip), vehicle: Klucel (hydroxypropylcellulose) (HPC)
[13] = dose: 200.0 mg/kg/injection, schedule: Q01DX009 (ip), vehicle: Klucel (hydroxypropylcellulose) (HPC)
[14] = dose: 200.0 mg/kg/injection, schedule: Q04DX003 (ip), vehicle: Klucel (hydroxypropylcellulose) (HPC)

Measured: T/C

Cc1ccc(S(=O)(=O)N2CN(S(=O)(=O)c3ccc(C)cc3)CN(S(=O)(=O)c3ccc(C)cc3)C2)cc1
inactive: dose: 100.0 mg/kg/injection, schedule: Q04DX002 (ip), vehicle: saline with Tween-80 94 % of control | dose: 200.0 mg/kg/injection, schedule: Q04DX002 (ip), vehicle: saline with Tween-80 91 % of control | dose: 400.0 mg/kg/injection, schedule: Q04DX002 (ip), vehicle: saline with Tween-80 91 % of control

CCOC(=O)c1[nH]c(C)c(CC(C(=O)OCC)C(=O)OCC)c1C
inactive: [1] 97 % of control | dose: 50.0 mg/kg/injection, schedule: Q04DX003 (ip), vehicle: Klucel (hydroxypropylcellulose) (HPC) 93 % of control | [2] 101 % of control | [3] 95 % of control | [4] 95 % of control | [5] 98 % of control

N#CSc1ccc(S(N)(=O)=O)cc1
inactive: dose: 6.25 mg/kg/injection, schedule: Q01DX009 (ip), vehicle: Klucel (hydroxypropylcellulose) (HPC) 94 % of control | dose: 12.5 mg/kg/injection, schedule: Q01DX009 (ip), vehicle: Klucel (hydroxypropylcellulose) (HPC) 92 % of control | dose: 12.5 mg/kg/injection, schedule: Q04DX003 (ip), vehicle: Klucel (hydroxypropylcellulose) (HPC) 100 % of control | [6] 106 % of control | [1] 105 % of control

CCCC(=O)Nc1cccc(OC(=O)NC)c1
inactive: dose: 100.0 mg/kg/injection, schedule: Q04DX003 (ip), vehicle: saline with Tween-80 90 % of control | dose: 400.0 mg/kg/injection, schedule: Q04DX003 (ip), vehicle: saline with Tween-80 88 % of control

O=C(Nc1ccc(Cl)cc1)c1cc(Cl)cc(Cl)c1Br
inactive: dose: 100.0 mg/kg/injection, schedule: Q01DX001 (ip), vehicle: carboxymethylcellulose (CMC) 95 % of control | dose: 200.0 mg/kg/injection, schedule: Q01DX001 (ip), vehicle: carboxymethylcellulose (CMC) 93 % of control | dose: 400.0 mg/kg/injection, schedule: Q01DX001 (ip), vehicle: carboxymethylcellulose (CMC) 91 % of control

CC1=CC(c2ccc3c(c2)OCO3)c2c(c3ccccc3oc2=O)O1 (stereo not drawn)
inactive: dose: 6.25 mg/kg/injection, schedule: Q01DX009 (ip), vehicle: water 98 % of control | dose: 12.5 mg/kg/injection, schedule: Q01DX009 (ip), vehicle: water 93 % of control | dose: 25.0 mg/kg/injection, schedule: Q01DX009 (ip), vehicle: water 100 % of control and 90 % of control | dose: 50.0 mg/kg/injection, schedule: Q01DX009 (ip), vehicle: water 86 % of control

CCCCCCCCCCCCCCCC(CCCCCCCC)CCCCCCCC
inactive: dose: 75.0 mg/kg/injection, schedule: Q01DX001 (ip), vehicle: saline with Tween-80 97 % of control | dose: 150.0 mg/kg/injection, schedule: Q01DX001 (ip), vehicle: saline with Tween-80 110 % of control | dose: 300.0 mg/kg/injection, schedule: Q01DX001 (ip), vehicle: saline with Tween-80 95 % of control

Cc1ccc(C(=O)N2C(=O)Cc3ccccc32)cc1
inactive: dose: 50.0 mg/kg/injection, schedule: Q04DX002 (ip), vehicle: Klucel (hydroxypropylcellulose) (HPC) 90 % of control | dose: 100.0 mg/kg/injection, schedule: Q04DX002 (ip), vehicle: Klucel (hydroxypropylcellulose) (HPC) 94 % of control | dose: 200.0 mg/kg/injection, schedule: Q04DX002 (ip), vehicle: Klucel (hydroxypropylcellulose) (HPC) 94 % of control

CCc1ccc(NC(=O)Nc2ccc(Cl)cc2)cc1
inactive: dose: 100.0 mg/kg/injection, schedule: Q01DX009 (ip), vehicle: gum acacia 92 % of control | dose: 100.0 mg/kg/injection, schedule: Q04DX003 (ip), vehicle: gum acacia 92 % of control | dose: 200.0 mg/kg/injection, schedule: Q01DX009 (ip), vehicle: gum acacia 89 % of control | dose: 200.0 mg/kg/injection, schedule: Q04DX003 (ip), vehicle: gum acacia 92 % of control | dose: 400.0 mg/kg/injection, schedule: Q01DX009 (ip), vehicle: gum acacia 94 % of control | dose: 400.0 mg/kg/injection, schedule: Q04DX003 (ip), vehicle: gum acacia 93 % of control

O=C(CCCC(=O)NNC(=O)Nc1cc(Cl)ccc1Cl)NNC(=O)Nc1cc(Cl)ccc1Cl
inactive: [7] 108 % of control | [8] 102 % of control | [9] 102 % of control | [10] 102 % of control

CC(=O)NN(CCN(NC(C)=O)C(C)=O)C(C)=O
inactive: dose: 100.0 mg/kg/injection, schedule: Q04DX003 (ip), vehicle: saline 104 % of control | dose: 200.0 mg/kg/injection, schedule: Q04DX003 (ip), vehicle: saline 95 % of control | dose: 400.0 mg/kg/injection, schedule: Q04DX003 (ip), vehicle: saline 101 % of control

Brc1ccc[n+](Cc2ccccc2)c1
inactive: dose: 75.0 mg/kg/injection, schedule: Q01DX001 (ip), vehicle: saline 98 % of control

O=C(O)c1c(O)c(-c2ccccc2)nc2ccccc12
inactive: dose: 25.0 mg/kg/injection, schedule: Q01DX001 (ip), vehicle: Klucel (hydroxypropylcellulose) (HPC) 90 % of control | dose: 50.0 mg/kg/injection, schedule: Q01DX001 (ip), vehicle: Klucel (hydroxypropylcellulose) (HPC) 102 % of control | [11] 101 % of control | [2] 86 % of control | [12] 100 % of control | [3] 98 % of control | [13] 103 % of control | [14] 100 % of control

CC(=O)OCC1OC(n2cnc3c(N)ncnc32)C(OC(C)=O)C1OC(C)=O (stereo not drawn)
inactive: [7] 100 % of control | [8] 110 % of control | dose: 100.0 mg/kg/injection, schedule: Q01DX005 (ip), vehicle: saline 93 % of control | [9] 94 % of control and 106 % of control | dose: 200.0 mg/kg/injection, schedule: Q01DX005 (ip), vehicle: saline 95 % of control | dose: 200.0 mg/kg/injection, schedule: Q01DX009 (ip), vehicle: saline 104 % of control | [10] 94 % of control | dose: 400.0 mg/kg/injection, schedule: Q01DX009 (ip), vehicle: saline 109 % of control

CC(C)(C)c1cc(C(=S)N2CCOCC2)cc(C(C)(C)C)c1O
inactive: [2] 103 % of control | [4] 100 % of control | [5] 86 % of control

CC1(C)N=C(N)N=C(N)N1c1ccc(Cl)cc1Cl
inactive: dose: 20.0 mg/kg/injection, schedule: Q04DX003 (ip), vehicle: Klucel (hydroxypropylcellulose) (HPC) 104 % of control | dose: 25.0 mg/kg/injection, schedule: Q01DX001 (ip), vehicle: saline with Tween-80 97 % of control | [6] 105 % of control | dose: 40.0 mg/kg/injection, schedule: Q04DX003 (ip), vehicle: Klucel (hydroxypropylcellulose) (HPC) 100 % of control | dose: 50.0 mg/kg/injection, schedule: Q01DX001 (ip), vehicle: saline with Tween-80 93 % of control | [11] 94 % of control | dose: 80.0 mg/kg/injection, schedule: Q04DX003 (ip), vehicle: Klucel (hydroxypropylcellulose) (HPC) 94 % of control | dose: 100.0 mg/kg/injection, schedule: Q01DX001 (ip), vehicle: saline with Tween-80 97 % of control | [8] 100 % of control | [3] 94 % of control

NS(=O)(=O)c1ccc(NC(=O)Nc2ccc(Cl)cc2[N+](=O)[O-])cc1
inactive: [12] 94 % of control | [13] 91 % of control | dose: 400.0 mg/kg/injection, schedule: Q01DX009 (ip), vehicle: Klucel (hydroxypropylcellulose) (HPC) 86 % of control

S=C(c1ccc2ccccc2n1)N1CCOCC1
inactive: [3] 100 % of control | [14] 91 % of control | dose: 400.0 mg/kg/injection, schedule: Q04DX003 (ip), vehicle: Klucel (hydroxypropylcellulose) (HPC) 105 % of control
